Data taken from publication PMC5854708, “Grass Carp Prolactin Gene: Structural Characterization and Signal Transduction for PACAP-induced Prolactin Promoter Activity” (Scientific Reports, 2018).

Experiments:
CREB = conditions: mammalian cell models; via cAMP/PKA, cAMP/ERK and/or PLC/PKC; cited from earlier work
Description: CREB is a member of the leucine zipper transcription factors and well-known to be involved in the activation of cAMP-inducible genes. […] Expression of a dominant-negative form of CREB (MCREB) inhibited basal and Forskolin-induced PRL promoter activity and PRL mRNA expression in rat lactotrophs ...

[1] = test system: grass carp PRL promoter (pPRL(−1156).Luc) in αT3-1 cells; type: cell-based, grass carp (promoter); rat (αT3-1 cells, as printed); conditions: 0.1–1000 nM, 24 hr, n = 4
Method: The cells were then cultured for 18 hr recovery before drug treatment. (A) Time course analysis on the effect of oPACAP38 (6–48 hrs) on grass carp PRL promoter activity in αT3-1 cells. (B) αT3-1 cells over-expressed pPRL(−1156).LUC were treated for 24 hrs with increasing doses of oPACAP38. Effects of PACAP and VIP antagonists on PACAP-induced PRL mRNA expression were also investigated. In these experiments, αT3-1 cells over-expressed pPRL(−1156).LUC were challenged with oPACAP38 (10 nM, 24 hr) in the presence or absence of (C) the PACAP antagonist PACAP6-38 (10 nM) or (D) VIP antagonist (4-Cl-D-Phe6, Leu17)VIP (“VIP-R antagonist”, 100 nM).
After 18 h recovery, the cells were incubated with respective drugs. (A) αT3-1 cells over-expressed pPRL(−1156).LUC were treated for 24 hrs with increasing doses of cpt-cAMP (1–100 μM). (B) αT3-1 cells over-expressed pPRL(−1156).LUC were treated for 24 hrs with increasing doses of Forskolin (10–1000 nM). Effects of cAMP/PKA inhibitors on PACAP-induced PRL mRNA expression were then investigated. αT3-1 cells over-expressed pPRL(−1156).LUC were challenged with oPACAP38 (10 nM, 24 hr) in the presence or absence of (C) AC inhibitor MDL12330A (10 μM) or (D) PKA blocker H89 (10 μM).
After 18 h recovery, the cells were incubated with respective drugs. The cells were treated for 24 hr with increasing doses of (A) Ca^2+ ionophore A23187 or (B) L-type VSCC activator Bay K8644. Inhibiting extracellular Ca^2+ entry on PRL mRNA expression in carp pituitary cells was examined. In this study, αT3-1 cells over-expressed pPRL(−1156).LUC were treated with (C) oPACAP38 (10 nM, 24 hrs) or (D) Forskolin (100 nM, 24 hrs) in the Ca^2+-free medium (with different doses of EGTA).
After 18 h recovery, the cells were incubated with respective drugs.

[2] = test system: PRL secretion / PRL mRNA in grass carp pituitary cells; conditions: cited from earlier work
Description: In carp model, PACAP nerve fibers can be identified in anterior pituitary overlapping with the distribution of lactotrophs. Furthermore, PAC1 receptors could be detected in grass carp lactotrophs.

[3] = test system: pCREB in grass carp pituitary cells; experiment: Western blot of pCREB in primary grass carp pituitary cells; conditions: oPACAP38, 24 hrs
[4] = test system: tCREB in grass carp pituitary cells; experiment: Western blot of tCREB in primary grass carp pituitary cells; conditions: oPACAP38, 24 hrs
ERK in αT3–1 cells = conditions: cited from earlier work
Description: (§1) In primary pituitary cells, PRL production induced by PACAP via functional coupling of cAMP/PKA−, Ca^2+/CaM−, and MAPK-dependent cascades. At the transcription level, cAMP/PKA and Ca^2+/CaM/CaM-II pathways are consistently involved in the PACAP regulation on PRL promoter activity. In mammalian cell models, e.g., in human SH-SY5Y neuroblastoma cells, functional coupling of MAPK (e.g., Erk1/2 and P38^MAPK) with cAMP-dependent mechanism has been reported. […] However, in our studies with αT3-1 cells, the inhibitors f ...

ERK in GH3 cells = conditions: cited from earlier work
Description: as §1

For “pituitary adenylate cyclase-activating peptide [PACAP]”, the CREB phosphorylation (CREB) is given as “trigger CREB phosphorylation”, the “concentration of maximal response, luciferase activity” value [1] is given as 1000 nM and the “dose dependence of luciferase activity expression” value [1] is given as “up-regulate luciferase activity expression in a dose-dependent manner”. For the same substance, the EC50 ([1]; read-out: EC50 value, luciferase activity (PRL promoter activity)) was 4.5 nM, the “PRL mRNA expression” value [2] was “up-regulated” and the PRL secretion [2] was “up-regulated”. The CREB phosphorylation [3] was “significantly enhanced CREB phosphorylation”, the “total CREB production” value [4] was “stimulated total CREB production” and the ERK activation (ERK in αT3–1 cells) was “stimulates ERK activation”. The ERK activation (ERK in GH3 cells) was “triggered ERK activation”.
